Experimental data reported in US4343949A, “Novel 2-substituted-3,4-epoxycyclopentan-1-ones, 2-substituted-3,4-epoxycyclopentan-1-ols, and various 2-substituted-cyclopentenones” (American Cyanamid Company, priority 1979, dated 1982).

Tests used:
[1] = system: ulcerogenic properties of indomethacin; test: protection against the ulcerogenic properties of indomethacin (stomach ulcer score); type: in vivo, Rats; conditions: indomethacin 20 mg./kg. s.c., 2.5 or lower = active
Method: The compounds of this invention provide protection against the ulcerogenic properties of indomethacin. This assay was carried out in the following manner.
Rats were starved for 48 hours (water was given ad libitum). Indomethacin (20 mg./kg. of body weight) was administered by the subutaneous route and one-half the dose of the test compound was administered by gavage at the same time. After three hours, the second half of the test compound was administered also by Gavage. Five hours after the administration of indomethacin the animals were decapitated and the stomachs removed. The stomachs were washed with distilled water, blotted on gauze, cut along the larger curvature, and the contents rinsed with distilled water. The stomachs were spread out, pinned on a cork and visualized under magnifying glass for ulcers. The criteria for scoring of ulcers was as previously reported. [Abdel-Galil et al. Brit. J. Pharmac. Chemotherapy 33:1-14 (1968)]. […]
______________________________________
Petechial hemorrhage or pin point ulcer
Many ulcers, a few large
Many ulcers, mainly large
Control animals treated with indomethacin but not test compound consistently give scores of about 3.0-3.5. Control animals treated with neither indomethacin nor test compound give scores of about 0.5-0.8. Compounds producing a score of 2.5 or lower are considered to be active.

[2] = system: bronchospasms elicited by 5-hydroxytryptamine; test: bronchodilator activity (Konzett assay) against 5-hydroxytryptamine bronchospasm; type: in vivo, guinea pigs; conditions: Cavia porcellus; spasmogenic agent 5-hydroxytryptamine; three logarithmic cumulative intravenous doses
Method: (§1) Bronchodilator activity was determined in guinea pigs against bronchospasms elicited by intravenous injections of 5-hydroxytryptamine, histamine or acetylcholine by the Konzett procedure. (See J. Lulling, P. Lievens, F. El Sayed and J. Prignot, Arzeimittel-Porschung, 18 995 (1968).]
(§2) In the Table which follows bronchodilator activity for representative compounds of this invention against one or more of the three spasmogenic agents is expressed as an ED50 determined from the results obtained with three logarithemic cumulative intravenous doses.

[3] = system: bronchospasms elicited by histamine; test: bronchodilator activity (Konzett assay) against histamine bronchospasm; type: in vivo, guinea pigs; conditions: Cavia porcellus; spasmogenic agent histamine; three logarithmic cumulative intravenous doses
Method: as §1, §2

[4] = system: bronchospasms elicited by acetylcholine; test: bronchodilator activity (Konzett assay) against acetylcholine bronchospasm; type: in vivo, guinea pigs; conditions: Cavia porcellus; spasmogenic agent acetylcholine (head prints choline); three logarithmic cumulative intravenous doses
Method: as §1, §2

[5] = total oral dose 25 mg./kg. of body weight, control score 3.2

## CCCCCC(O)/C=C/C1CCC(=O)C1CCCCSCC(=O)O (stereo not drawn) [9-oxo-3-thia-15-epi-hydroxy-13-trans-prostenoic acid]
[1]; [5]
  Score, Treated (stomach ulcer score): 2.3

## CCCCCC(O)/C=C/C1CCC(=O)C1CCCCSCC(=O)O (stereo not drawn) [9-oxo-3-thia-15-hydroxy-13-trans-prostenoic acid]
[1]; [5]
  Score, Treated (stomach ulcer score): 1.8

## CCCCCC(O)/C=C/C1CCC(=O)C1(C)CCCCCCC(=O)O (stereo not drawn) [9-oxo-8β-methyl-15-hydroxy-13-trans-prostenoic acid]
[1]; total oral dose 12.5 mg./kg. of body weight, control score 3.0
  Score, Treated (stomach ulcer score): 2.0

## CCCCCC(O)/C=C/C1CCC(=O)C1CCCCCC(CC)C(=O)O (stereo not drawn) [9-oxo-15-hydroxy-2-ethyl-13-trans-prostenoic acid]
[2]
  ED50: 0.329 µg/kg
[3]
  ED50: 0.145 µg/kg
[4]
  ED50: 0.533 µg/kg

## CCCCCC(O)/C=C\C1CCC(=O)C1CCCCCCC(=O)O (stereo not drawn) [9-oxo-15-hydroxy-13-cis-prostenoic acid]
[2]
  ED50: 0.106 µg/kg
[4]
  ED50: 0.32 µg/kg
